We go through three compounds from paper PMC2774495 (Cancer chemotherapy and pharmacology, 2009).

The term Ki denotes a dissociation constant, usually derived from enzyme kinetics or from competition with a known ligand. The IC50 is the concentration that inhibits the measured activity by half. A lower IC50 goes with higher potency. As usually defined, the inhibition is the drop in the measured response relative to a control, in per cent. High values mean a response far below the control, low ones a response near the control.

Where two headings read alike, the source gives them in different places.

Data set [1] has as its target T1, expressed CYP2C19 (Homo sapiens, UniProt P33261). The conditions noted are these: read-out: Ki values, expressed CYP2C19; expressed 2C19 52 pmol/ml, S-mephenytoin 10–75 μM, mean ± SE, competitive model.
Data set [2] addresses T2, CYP2C19 (Homo sapiens, UniProt P33261).
The conditions of data set [3]: cited from earlier work.
Data set [4] addresses T3, CYP2B6 (Homo sapiens, UniProt P20813).
T3 sequence (P20813 1-491): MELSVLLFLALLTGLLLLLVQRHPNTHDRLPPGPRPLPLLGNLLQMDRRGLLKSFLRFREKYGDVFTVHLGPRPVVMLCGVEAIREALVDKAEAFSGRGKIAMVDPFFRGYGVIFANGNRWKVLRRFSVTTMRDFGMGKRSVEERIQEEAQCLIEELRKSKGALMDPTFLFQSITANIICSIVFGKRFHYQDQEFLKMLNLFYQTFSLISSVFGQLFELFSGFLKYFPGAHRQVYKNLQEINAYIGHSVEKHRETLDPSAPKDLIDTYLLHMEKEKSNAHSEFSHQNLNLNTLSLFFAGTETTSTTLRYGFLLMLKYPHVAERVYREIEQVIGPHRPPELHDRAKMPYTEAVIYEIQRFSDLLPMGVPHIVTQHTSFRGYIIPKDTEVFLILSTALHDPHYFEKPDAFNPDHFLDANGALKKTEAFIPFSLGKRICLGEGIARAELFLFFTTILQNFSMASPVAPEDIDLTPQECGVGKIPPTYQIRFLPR
The data set is described as follows: Inhibition of CYP2B6.

Data set [5] addresses T4, CYP2A6 (Homo sapiens, UniProt P11509).
T4 sequence (P11509 1-494): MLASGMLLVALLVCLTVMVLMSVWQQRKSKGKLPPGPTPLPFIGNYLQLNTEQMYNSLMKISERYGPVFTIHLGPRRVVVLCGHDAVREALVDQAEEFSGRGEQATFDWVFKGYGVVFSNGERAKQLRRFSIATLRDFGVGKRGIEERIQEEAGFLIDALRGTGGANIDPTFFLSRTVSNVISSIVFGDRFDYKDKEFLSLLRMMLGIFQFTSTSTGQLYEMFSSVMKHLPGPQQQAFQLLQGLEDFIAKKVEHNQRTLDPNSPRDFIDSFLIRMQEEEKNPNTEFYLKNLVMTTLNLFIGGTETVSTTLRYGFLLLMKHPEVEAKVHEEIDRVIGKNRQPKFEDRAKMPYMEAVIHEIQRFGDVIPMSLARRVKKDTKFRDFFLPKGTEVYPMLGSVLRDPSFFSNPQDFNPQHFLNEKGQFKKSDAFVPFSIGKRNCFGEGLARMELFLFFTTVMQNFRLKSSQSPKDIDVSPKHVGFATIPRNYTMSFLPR
Put plainly: Inhibition of CYP2A6.

The target of data set [6] is T5, expressed CYP2B6 (Homo sapiens, UniProt P20813).
T5 sequence (P20813 1-491): T3 sequence (P20813 1-491)
Put plainly: Inhibition of expressed CYP2B6. To be noted: read-out: Ki values, expressed CYP2B6; expressed CYP2B6 52 pmol/ml, efavirenz 10–75 μM, mean ± SE, competitive model. The format is biochemical.

Data set [7] deals with CYP1A2. The conditions noted are these: read-out: Ki for inhibition of CYP1A2; in vitro; cited from earlier work.
The subject of data set [8] is 2C9. To be noted: read-out: Ki for inhibition of CYP2C9; in vitro; cited from earlier work.
In data set [9] the target is T2, CYP2C19. Put plainly: biochemical.
In data set [10] the target is CYP2C9 (Homo sapiens, UniProt P11712). The data set is described as follows: in vitro. To be noted: microsomes, pH 7.4.
In data set [11] the target is T4, CYP2A6. Put plainly: in vitro. To be noted: microsomes, pH 7.4.
For data set [12] the following is noted: cited from earlier work. The source holds these as a separate data set.
Data set [13] concerns CYP2C8. Put plainly: Inhibition of CYP2C8. The class given is biochemical. To be noted: human, human liver microsomes, pH 7.4, probe amodiaquine 5 μM (desethylation). A general note: Liver microsomes are a subcellular fraction often used to study metabolism.
In data set [14] the target is T6, expressed CYP2A6 (Homo sapiens, UniProt P11509).
T6 sequence (P11509 1-494): T4 sequence (P11509 1-494)
Put plainly: Inhibition of expressed CYP2A6. The class given is biochemical.

Data set [15] concerns the target T4, CYP2A6. The data set is described as follows: Prediction of in vivo AUC change of CYP2A6 substrates from in vitro Ki. The conditions noted are these: for AUCI/AUCUI ratio expected in vivo, CYP2A6, free letrozole: unbound letrozole (fu 0.2–0.4).
In data set [16] the target is T3, CYP2B6. The data set is described as follows: in vitro. The conditions noted are these: microsomes, pH 7.4.
The target of data set [17] is CYP2D6 (Homo sapiens, UniProt P10635). Put plainly: in vitro. To be noted: microsomes, pH 7.4.
The test system of data set [18] is CYP3A. Put plainly: Inhibition of CYP3A. The format is biochemical. To be noted: human, human liver microsomes, pH 7.4, probe midazolam 10 μM (1′-hydroxylation).
Data set [19] has as its system CYP isoforms. The data set is described as follows: Assessment of time-dependent inactivation. To be noted: preincubation 0 and 15 min with HLM and cofactors, data not shown. The class given is biochemical, human.
For data set [20] the following is noted: cited from earlier work. The source holds these as a separate data set.
The target in data set [21] is T1, expressed CYP2C19. Put plainly: biochemical.
The conditions of data set [22]: rat liver tissues; cited from earlier work.

T1 sequence (P33261 whole entry): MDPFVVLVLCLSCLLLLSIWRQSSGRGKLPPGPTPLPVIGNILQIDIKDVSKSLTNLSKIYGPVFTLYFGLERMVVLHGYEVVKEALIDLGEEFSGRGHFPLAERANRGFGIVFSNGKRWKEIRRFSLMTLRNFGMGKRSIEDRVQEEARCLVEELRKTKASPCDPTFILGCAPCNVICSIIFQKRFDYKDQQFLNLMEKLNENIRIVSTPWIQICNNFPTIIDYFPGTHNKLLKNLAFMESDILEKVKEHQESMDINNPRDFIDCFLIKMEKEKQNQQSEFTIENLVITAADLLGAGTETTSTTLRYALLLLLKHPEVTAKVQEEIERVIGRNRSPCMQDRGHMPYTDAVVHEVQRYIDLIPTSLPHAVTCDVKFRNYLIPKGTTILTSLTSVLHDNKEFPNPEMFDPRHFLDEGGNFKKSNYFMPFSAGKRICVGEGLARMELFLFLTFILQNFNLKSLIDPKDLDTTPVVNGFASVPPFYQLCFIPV
T2 sequence (P33261 whole entry): as above
CYP2C9, sequence (P11712 whole entry): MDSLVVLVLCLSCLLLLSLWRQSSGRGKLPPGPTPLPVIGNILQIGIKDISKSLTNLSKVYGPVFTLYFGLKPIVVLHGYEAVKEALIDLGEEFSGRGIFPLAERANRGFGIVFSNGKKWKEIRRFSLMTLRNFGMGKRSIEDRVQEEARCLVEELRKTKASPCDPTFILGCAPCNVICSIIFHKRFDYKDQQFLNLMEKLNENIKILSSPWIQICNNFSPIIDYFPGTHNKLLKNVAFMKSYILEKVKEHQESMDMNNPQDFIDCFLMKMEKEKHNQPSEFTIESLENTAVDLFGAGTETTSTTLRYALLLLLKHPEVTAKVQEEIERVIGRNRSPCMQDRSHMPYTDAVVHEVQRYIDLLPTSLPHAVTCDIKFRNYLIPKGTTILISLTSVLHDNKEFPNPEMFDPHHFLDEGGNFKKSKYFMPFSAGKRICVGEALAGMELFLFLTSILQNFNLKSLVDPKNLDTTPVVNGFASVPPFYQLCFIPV
CYP2D6, sequence (P10635 whole entry): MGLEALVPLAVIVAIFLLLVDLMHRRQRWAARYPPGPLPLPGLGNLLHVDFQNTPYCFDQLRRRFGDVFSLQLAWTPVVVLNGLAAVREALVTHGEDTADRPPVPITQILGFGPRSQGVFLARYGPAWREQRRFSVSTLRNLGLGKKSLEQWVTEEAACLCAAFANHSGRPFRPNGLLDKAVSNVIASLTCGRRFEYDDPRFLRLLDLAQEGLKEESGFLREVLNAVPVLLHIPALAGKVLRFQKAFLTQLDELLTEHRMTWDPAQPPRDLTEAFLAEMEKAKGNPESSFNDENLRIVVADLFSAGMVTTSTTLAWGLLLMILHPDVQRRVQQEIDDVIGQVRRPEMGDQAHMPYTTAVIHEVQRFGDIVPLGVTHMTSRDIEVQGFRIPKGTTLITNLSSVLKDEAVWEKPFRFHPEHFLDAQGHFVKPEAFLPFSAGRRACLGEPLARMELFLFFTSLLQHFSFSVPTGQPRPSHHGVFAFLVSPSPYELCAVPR

Take `N#Cc1ccc(C(O)c2ccc(C#N)cc2)cc1` [letrozole metabolite, 4,4′-methanol-bisbenzonitrile]: the Ki in [1] is 4.5 ± 0.7 µM; in data set [2] (read-out: Ki values, CYP2C19, HLMs, HLMs (SD-101) 0.5 mg/ml, S-mephenytoin 10–75 μM, mean ± SE, competitive model), 19.5 ± 0.5 µM; in data set [4] (read-out: Ki values, CYP2B6, HLMs, HLMs (HL-091499) 0.5 mg/ml, efavirenz 10–75 μM, mean ± SE, competitive model), 12.9 ± 3.8 µM; in data set [6] it was 40.4 ± 14.6 µM. Also, in data set [2] (Dixon plots and enzyme inhibition models, HLMs and expressed CYP2C19), the “Mode of inhibition of CYP2C19” value was “competitive”. For the same compound, in [3] (human), the “Fraction of letrozole dose accounted for by the metabolite” value is “over 60%”. For the same compound, the “Mode of inhibition of CYP2B6” value in [4] (Dixon plots and enzyme inhibition models, HLMs and expressed CYP2B6) is on record as “competitive”. The “Effect on CYP2A6 activity” value in [5] (HLMs, 0–100 μM) is on record as “lack of any effect”.
For `CC(C)(C#N)c1cc(Cn2cncn2)cc(C(C)(C)C#N)c1` [anastrozole], the Ki in data set [7] and in data set [8] was 8 to 10 µM in each case.
`N#Cc1ccc(C(c2ccc(C#N)cc2)n2cncn2)cc1` [letrozole, 4,4′-[(1H-1,2,4-triazol-1-yl)methylene] bis-benzonitrile]: the “Fold Ki for CYP2C19 above therapeutic plasma concentrations of letrozole” value in [2] (human) is “over 40 fold”. For the same compound, the “Mode of inhibition of CYP2C19” value in data set [2] (microsomes) is “competitive”. For the same compound, the IC50 in [9] was found to be 24.8 µM; in data set [14], 12.5 µM; in data set [21], 62.9 µM; in data set [5], 5.9 µM. In addition, the inhibitory constant (Ki) in [9] was determined as 42.2 ± 3.8 µM; in data set [14], 5 ± 2.4 µM; in data set [21] (Ki values, expressed CYP2C19, expressed 2C19 52 pmol/ml, S-mephenytoin 10–75 μM, mean ± SE, competitive model), 33.3 µM. In data set [10], this compound had an inhibition at 60 min, 100 μM of less than 20%. The compound also showed an inhibition constant Ki at 15 min in data set [11] of 4.6 ± 0.1 µM. The “Effect on the pharmacokinetics of known CYP substrates including warfarin, diazepam, and tamoxifen” value in data set [12] was “lack of letrozole's effect”. This compound also had an inhibition at 15 min, 100 μM in data set [13] of less than 20%. Further, the “AUCI/AUCUI ratio expected in vivo, CYP2A6, total letrozole” value in data set [15] (letrozole plasma concentration 0.5–1 μM (bound + unbound), Ki from HLMs) is recorded as 1.11–1.22. Besides, the “Predicted increase in exposure of CYP2A6 substrates (maximum)” value in [15] (predicted from in vitro Ki) is 11–22%. For the same compound, the “AUCI/AUCUI ratio expected in vivo, CYP2A6, free letrozole” value in data set [15] (Ki from HLMs) is reported as “close to unity”; in data set [15] (Ki from HLMs, listed as Letrozole), 1.04–1.09. This compound registered an inhibition at 10 min, 100 μM in [16] of less than 20%. Further, in data set [3], the Absolute bioavailability is recorded as 99.9%. Further, in data set [3], the “Exposure at steady state higher than at a single dose” value is reported as 28%. Further, in data set [3] (following 14C-labeled letrozole (2.5 mg)), the “Radioactivity in plasma accounted by unchanged drug” value was “Approximately 82%”. The Cmax in [3] (read-out: Average maximum plasma concentration (Cmax) at steady state, women with breast cancer, 2.5 mg/day) is approximately 500 nM. This compound also displayed an inhibition at 30 min, 100 μM in data set [17] of less than 20%. Further, the inhibition at 5 min, 100 μM in [18] was less than 20%. The “Time dependence of inhibition of CYPs” value in [19] was “not time dependent”. For the same compound, the Plasma protein binding in data set [20] is recorded as 60%. Besides, the “Mode of inhibition of CYP2A6” value in data set [5] (Dixon plots and enzyme inhibition models, HLMs and expressed CYP2A6) is recorded as “competitive”. Moreover, the “Liver tissue concentration relative to plasma” value in [22] was “> sevenfold”.
